# Columns and labels:
# [1] = tested on: tick-born encephalitis (TBE) virus; conditions: in vivo; cited from earlier work
# [2] = tested on: antigen specific T cells; experiment: IFN-γ-ELISPOT of lymph node lymphocytes 10 days after subcutaneous vaccination; type: in vivo, C57BL/6 mice; conditions: lymph node lymphocytes of TRP-2 vaccinated mice; negative control with the same MHC restriction
# Description: Experimental Groups (5 Mice Each) • 1) TRP-2 peptide • 2) TRP-2 peptide+HGH • 3) TRP-2 peptide+pR 60 • 4) TRP-2 peptide+pR 60+HGH
# On day 0 mice were injected subcutaneously with a total volume of 100 μl containing the above mentioned compounds. Animals were sacrificed 10 days after injection of the vaccine and mesenteric and inguinal lymph nodes harvested. Results are illustrated in FIG. 1.
# Lymphocytes were prepared from lymph nodes as follows: cells were passed through a 70 μm sieve and washed twice with DMEM medium (GIBCO BRL) containing 2.5% fetal calf serum (FCS; SIGMA chemicals). Cells were adjusted to 10^7 cells/ml in complete medium (DMEM+10% FCS). IFN-γ-ELISPOT assays were carried out in triplicate as described (Miyahira et al., 1995). This method is a widely used procedure allowing the quantification of antigen-specific T cells. Lymphocytes were restimulated with TRP-2 peptide or with an ovalbumin-derived peptide (SIINFEKL) with the same MHC restriction serving as negative control.
# Spots representing single T cells specific for the peptide used for re-stimulation (and immunization) were counted. The number of background spots observed with cells incubated without peptide(s) was subtracted from all samples.
Substance,vaccine efficacy / protection of animals [1],spots on restimulation with the ovalbumin-derived control peptide (IFN-γ-ELISPOT) [2]
"HGH: Human growth hormone, pituitary-derived factor; SAIZEN, Laboratoires Serono used in Example 1",potentiated vaccine efficacy and led to the protection of animals after only one injection of the vaccine,
SIINFEKL [ovalbumine derived peptide],,no spots detected

# Reference: patent US8277815B2, “Pharmaceutical composition comprising an antigen” (Intercell AG, priority 1999, dated 2012)
